{"source": "paper PMC2580052", "about": "(Proteins, 2008)", "biological_target": "T1, geranylgeranyl diphosphate synthase (GGPPS) (Saccharomyces cerevisiae, UniProt Q12051)", "T1 sequence (Q12051 1-335)": "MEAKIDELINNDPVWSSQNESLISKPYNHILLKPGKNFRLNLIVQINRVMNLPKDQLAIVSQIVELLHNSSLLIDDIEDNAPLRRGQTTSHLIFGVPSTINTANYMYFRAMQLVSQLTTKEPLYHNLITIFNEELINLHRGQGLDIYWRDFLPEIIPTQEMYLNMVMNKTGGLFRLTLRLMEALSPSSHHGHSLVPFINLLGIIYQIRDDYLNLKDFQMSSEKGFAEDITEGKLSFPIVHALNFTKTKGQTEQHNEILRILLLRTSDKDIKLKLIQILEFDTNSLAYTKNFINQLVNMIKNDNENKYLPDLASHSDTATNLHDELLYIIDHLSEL", "assay": "X-ray crystal structure", "format": "binding", "data": [{"compound": "CN(CCCCc1ccccc1)CCC(O)(P(=O)(O)O)P(=O)(O)O", "note": "[compound 5, N-[methyl(4-phenylbutyl)]-3-aminopropyl-1-hydroxy-1,1-bisphosphonate]", "values": [{"measurement": "X-ray crystal structure (2.08 Å, soaked crystals)", "value": "We thus crystallized and determined the x-ray crystallographic structure of BPH-210 bound to GGPPS."}]}]}
